Measured values taken from ChEMBL document CHEMBL3885881, “DrugMatrix”.

Organism: Rattus norvegicus
Test: DrugMatrix - Regimen: Daily Repeat
Format: toxicity, organism-based, Sprague-Dawley
Parameters: regimen Daily Repeat, gender Male, age 6-8 weeks
Conditions: in vivo, iv, vehicle 100 % SALINE; for ABSOLUTE BASOPHIL / ABSOLUTE EOSINOPHIL / ABSOLUTE LYMPHOCYTE / ABSOLUTE MONOCYTE / ABSOLUTE SEGMENTED NEUTROPHIL / BASOPHIL / EOSINOPHIL / ERYTHROCYTE COUNT / HEMATOCRIT / HEMOGLOBIN / LEUKOCYTE COUNT / LYMPHOCYTE / MEAN CORPUSCULAR HEMOGLOBIN / MEAN CORPUSCULAR HEMOGLOBIN CONCENTRATION / MEAN CORPUSCULAR VOLUME / MONOCYTE / NEUTROPHIL / NUCLEATED RED BLOOD CELLS / PLATELET COUNT: tissue Blood; for ALANINE AMINOTRANSFERASE / ALBUMIN / ALKALINE PHOSPHATASE / ASPARTATE AMINOTRANSFERASE / BLOOD UREA NITROGEN / CARBON DIOXIDE / CHLORIDE / CHOLESTEROL / CREATINE PHOSPHOKINASE / CREATININE / GLUCOSE / LACTATE DEHYDROGENASE / LIPASE / PHOSPHORUS / POTASSIUM / SODIUM / TOTAL BILIRUBIN / TOTAL PROTEIN / URIC ACID: tissue Plasma
[1] = 0 mg/kg, 72 h, dose level Control, time 3 day
[2] = 0 mg/kg, 120 h, dose level Control, time 5 day
[3] = […], 72 h, dose 0.24 mg/Kg, dose level Low, time 3 day
[4] = […], 72 h, dose 2.5 mg/Kg, dose level High, time 3 day

CC[C@@]1(O)C(=O)OCc2c1cc1n(c2=O)Cc2cc3ccccc3nc2-1 [CAMPTOTHECIN]
ABSOLUTE BASOPHIL [1]: 0 CELLS/uL | ABSOLUTE EOSINOPHIL [1]: 21.67 CELLS/uL | ABSOLUTE LYMPHOCYTE [1]: 10193.67 CELLS/uL | ABSOLUTE MONOCYTE [1]: 165.83 CELLS/uL | ABSOLUTE SEGMENTED NEUTROPHIL [1]: 702.17 CELLS/uL | BASOPHIL [1]: 0% | EOSINOPHIL [1]: 0.17% | ERYTHROCYTE COUNT [1]: 5.39 x10E6/uL | HEMATOCRIT [1]: 34.62% | HEMOGLOBIN [1]: 13.8 G/DL | LEUKOCYTE COUNT [1]: 11.08 x10E3/uL | LYMPHOCYTE [1]: 91.83% | MEAN CORPUSCULAR HEMOGLOBIN [1]: 25.68 pg | MEAN CORPUSCULAR HEMOGLOBIN CONCENTRATION [1]: 39.9 G/DL | MEAN CORPUSCULAR VOLUME [1]: 64.37 fL | MONOCYTE [1]: 1.5% | NEUTROPHIL [1]: 6.5% | NUCLEATED RED BLOOD CELLS [1]: 0 /100WBC | PLATELET COUNT [1]: 1202.83 x10E3/uL | ALANINE AMINOTRANSFERASE [1]: 55.5 u/L | ALBUMIN [1]: 4.22 G/DL | ALKALINE PHOSPHATASE [1]: 406.83 u/L | ASPARTATE AMINOTRANSFERASE [1]: 101.5 u/L | BLOOD UREA NITROGEN [1]: 13.5 mg/dL | CARBON DIOXIDE [1]: 30.33 mmol/L | CHLORIDE [1]: 102.17 MEQ/L | CHOLESTEROL [1]: 63.67 mg/dL | CREATINE PHOSPHOKINASE [1]: 732.67 u/L | CREATININE [1]: 0.2 mg/dL | GLUCOSE [1]: 157 mg/dL | LACTATE DEHYDROGENASE [1]: 442.5 u/L | LIPASE [1]: 10.83 u/L | PHOSPHORUS [1]: 12.68 mg/dL | POTASSIUM [1]: 5.67 MEQ/L | SODIUM [1]: 144 MEQ/L | TOTAL BILIRUBIN [1]: 0.15 mg/dL | TOTAL PROTEIN [1]: 6.02 G/DL | URIC ACID [1]: 1.55 mg/dL | ABSOLUTE BASOPHIL [2]: 0 CELLS/uL | ABSOLUTE EOSINOPHIL [2]: 17 CELLS/uL | ABSOLUTE LYMPHOCYTE [2]: 11849.17 CELLS/uL | ABSOLUTE MONOCYTE [2]: 69.83 CELLS/uL | ABSOLUTE SEGMENTED NEUTROPHIL [2]: 730.67 CELLS/uL | BASOPHIL [2]: 0% | EOSINOPHIL [2]: 0.17% | ERYTHROCYTE COUNT [2]: 5.93 x10E6/uL | HEMATOCRIT [2]: 37.42% | HEMOGLOBIN [2]: 14.4 G/DL | LEUKOCYTE COUNT [2]: 12.67 x10E3/uL | LYMPHOCYTE [2]: 93.17% | MEAN CORPUSCULAR HEMOGLOBIN [2]: 24.32 pg | MEAN CORPUSCULAR HEMOGLOBIN CONCENTRATION [2]: 38.5 G/DL | MEAN CORPUSCULAR VOLUME [2]: 63.08 fL | MONOCYTE [2]: 0.5% | NEUTROPHIL [2]: 6.17% | NUCLEATED RED BLOOD CELLS [2]: 0 /100WBC | PLATELET COUNT [2]: 1170.5 x10E3/uL | ALANINE AMINOTRANSFERASE [2]: 51 u/L | ALBUMIN [2]: 4.12 G/DL | ALKALINE PHOSPHATASE [2]: 392.67 u/L | ASPARTATE AMINOTRANSFERASE [2]: 81.67 u/L | BLOOD UREA NITROGEN [2]: 16.17 mg/dL | CARBON DIOXIDE [2]: 30.67 mmol/L | CHLORIDE [2]: 100.5 MEQ/L | CHOLESTEROL [2]: 64.83 mg/dL | CREATINE PHOSPHOKINASE [2]: 242.67 u/L | CREATININE [2]: 0.2 mg/dL | GLUCOSE [2]: 186.83 mg/dL | LACTATE DEHYDROGENASE [2]: 188 u/L | LIPASE [2]: 10.83 u/L | PHOSPHORUS [2]: 11.67 mg/dL | POTASSIUM [2]: 5.51 MEQ/L | SODIUM [2]: 142.55 MEQ/L | TOTAL BILIRUBIN [2]: 0.22 mg/dL | TOTAL PROTEIN [2]: 6.08 G/DL | URIC ACID [2]: 1.85 mg/dL | ABSOLUTE BASOPHIL [3]: 0 CELLS/uL | ABSOLUTE EOSINOPHIL [3]: 41.67 CELLS/uL | ABSOLUTE LYMPHOCYTE [3]: 12074 CELLS/uL | ABSOLUTE MONOCYTE [3]: 83.33 CELLS/uL | ABSOLUTE SEGMENTED NEUTROPHIL [3]: 834.33 CELLS/uL | BASOPHIL [3]: 0% | EOSINOPHIL [3]: 0.33% | ERYTHROCYTE COUNT [3]: 5.45 x10E6/uL | HEMATOCRIT [3]: 34.8% | HEMOGLOBIN [3]: 13.63 G/DL | LEUKOCYTE COUNT [3]: 13.03 x10E3/uL | LYMPHOCYTE [3]: 92.67% | MEAN CORPUSCULAR HEMOGLOBIN [3]: 25.13 pg | MEAN CORPUSCULAR HEMOGLOBIN CONCENTRATION [3]: 39.23 G/DL | MEAN CORPUSCULAR VOLUME [3]: 63.97 fL | MONOCYTE [3]: 0.67% | NEUTROPHIL [3]: 6.33% | NUCLEATED RED BLOOD CELLS [3]: 0 /100WBC | PLATELET COUNT [3]: 732.67 x10E3/uL | ABSOLUTE BASOPHIL [4]: 0 CELLS/uL | ABSOLUTE EOSINOPHIL [4]: 0 CELLS/uL | ABSOLUTE LYMPHOCYTE [4]: 9985 CELLS/uL | ABSOLUTE MONOCYTE [4]: 46 CELLS/uL | ABSOLUTE SEGMENTED NEUTROPHIL [4]: 602.33 CELLS/uL | BASOPHIL [4]: 0% | EOSINOPHIL [4]: 0% | ERYTHROCYTE COUNT [4]: 5.09 x10E6/uL | HEMATOCRIT [4]: 32.33% | HEMOGLOBIN [4]: 13.2 G/DL | LEUKOCYTE COUNT [4]: 10.63 x10E3/uL | LYMPHOCYTE [4]: 94% | MEAN CORPUSCULAR HEMOGLOBIN [4]: 25.93 pg | MEAN CORPUSCULAR HEMOGLOBIN CONCENTRATION [4]: 40.87 G/DL | MEAN CORPUSCULAR VOLUME [4]: 63.53 fL | MONOCYTE [4]: 0.33% | NEUTROPHIL [4]: 5.67% | NUCLEATED RED BLOOD CELLS [4]: 0 /100WBC | PLATELET COUNT [4]: 1247.67 x10E3/uL
